{
  "source": "paper PMC4505863",
  "about": "(ACS Chemical Neuroscience, 2014)",
  "origin": "cited, not measured here",
  "key": {"[1]": {"tested_on": "Male C57BL/6J mice", "settings": "cited from earlier work"}, "[2]": {"tested_on": "mice", "settings": "cited from earlier work; for doses producing the head twitch in mice: 34−36"}},
  "data": [
    {"smiles": "CCN(CC)C(=O)[C@@H]1C=C2c3cccc4[nH]cc(c34)C[C@H]2N(C)C1", "note": "[LSD, reference compound]", "values": [
      {"measurement": "ED50, HTR, automated system", "setting": "[1]", "value": 0.13, "unit": "µmol/kg"},
      {"measurement": "ED50, head twitch, direct observation", "setting": "[2]", "value": 0.14, "unit": "µmol/kg"}
    ]},
    {"smiles": "COc1cc(C[C@@H](C)N)c(OC)cc1Br", "note": "[R-DOB, R-(−)-2,5-dimethoxy-4-bromoamphetamine]", "values": [
      {"measurement": "doses producing the head twitch in mice", "setting": "[2]", "value": "≤ 1", "unit": "mg/kg"}
    ]},
    {"smiles": "CCCSc1cc(OC)c(CCN)cc1OC", "note": "[Compound 2C-T-7, 2,5-dimethoxy-4-propylthiophenethylamine]", "values": [
      {"measurement": "doses producing the head twitch in mice", "setting": "[2]", "value": "≤ 1", "unit": "mg/kg"}
    ]},
    {"smiles": "CN(C)CCc1c[nH]c2cccc(O)c12", "note": "[psilocin]", "values": [
      {"measurement": "doses producing the head twitch in mice", "setting": "[2]", "value": "≤ 1", "unit": "mg/kg"}
    ]}
  ]
}
